Assays:
[1] = target: T1, ATP-dependent translocase ABCB1 (Homo sapiens, UniProt P08183); experiment: Reversal of human MDR1-mediated multidrug resistance in mouse L5178Y cells expressing MDR1 assessed as mean fluorescence intensity of rhodamine-123 uptake at 20 uM after 10 mins by flow cytometry; type: cell-based
[2] = target: T1, ATP-dependent translocase ABCB1; experiment: Reversal of human MDR1-mediated multidrug resistance in mouse L5178Y cells expressing MDR1 assessed as mean fluorescence intensity of rhodamine-123 uptake at 2 uM after 10 mins by flow cytometry; type: cell-based
[3] = target: T1, ATP-dependent translocase ABCB1; experiment: Reversal of human MDR1-mediated multidrug resistance in mouse L5178Y cells expressing MDR1 assessed as fluorescence activity ratio at 20 uM after 10 mins by rhodamine-123 exclusion test; type: cell-based
L5178Y [4] = experiment: Antiproliferative activity against mouse L5178Y cells after 72 hrs by MTT assay; type: functional; settings: read-out: ID50 (the source's name)
[5] = target: T1, ATP-dependent translocase ABCB1; experiment: Reversal of human MDR1-mediated multidrug resistance in mouse L5178Y cells expressing MDR1 assessed as fluorescence activity ratio at 2 uM after 10 mins by rhodamine-123 exclusion test; type: cell-based
L5178Y [6] = experiment: Antiproliferative activity against multidrug resistant mouse L5178Y cells expressing human MDR1 after 72 hrs by MTT assay; type: functional; settings: read-out: ID50 (the source's name)
[7] = target: T1, ATP-dependent translocase ABCB1; settings: l5178y, 10 min, 22.2 µM
Description: Reversal of human MDR1-mediated multidrug resistance in mouse L5178Y cells expressing MDR1 assessed as mean fluorescence intensity of rhodamine-123 uptake at 22.2 uM after 10 mins by flow cytometry

T1 sequence (P08183 whole entry): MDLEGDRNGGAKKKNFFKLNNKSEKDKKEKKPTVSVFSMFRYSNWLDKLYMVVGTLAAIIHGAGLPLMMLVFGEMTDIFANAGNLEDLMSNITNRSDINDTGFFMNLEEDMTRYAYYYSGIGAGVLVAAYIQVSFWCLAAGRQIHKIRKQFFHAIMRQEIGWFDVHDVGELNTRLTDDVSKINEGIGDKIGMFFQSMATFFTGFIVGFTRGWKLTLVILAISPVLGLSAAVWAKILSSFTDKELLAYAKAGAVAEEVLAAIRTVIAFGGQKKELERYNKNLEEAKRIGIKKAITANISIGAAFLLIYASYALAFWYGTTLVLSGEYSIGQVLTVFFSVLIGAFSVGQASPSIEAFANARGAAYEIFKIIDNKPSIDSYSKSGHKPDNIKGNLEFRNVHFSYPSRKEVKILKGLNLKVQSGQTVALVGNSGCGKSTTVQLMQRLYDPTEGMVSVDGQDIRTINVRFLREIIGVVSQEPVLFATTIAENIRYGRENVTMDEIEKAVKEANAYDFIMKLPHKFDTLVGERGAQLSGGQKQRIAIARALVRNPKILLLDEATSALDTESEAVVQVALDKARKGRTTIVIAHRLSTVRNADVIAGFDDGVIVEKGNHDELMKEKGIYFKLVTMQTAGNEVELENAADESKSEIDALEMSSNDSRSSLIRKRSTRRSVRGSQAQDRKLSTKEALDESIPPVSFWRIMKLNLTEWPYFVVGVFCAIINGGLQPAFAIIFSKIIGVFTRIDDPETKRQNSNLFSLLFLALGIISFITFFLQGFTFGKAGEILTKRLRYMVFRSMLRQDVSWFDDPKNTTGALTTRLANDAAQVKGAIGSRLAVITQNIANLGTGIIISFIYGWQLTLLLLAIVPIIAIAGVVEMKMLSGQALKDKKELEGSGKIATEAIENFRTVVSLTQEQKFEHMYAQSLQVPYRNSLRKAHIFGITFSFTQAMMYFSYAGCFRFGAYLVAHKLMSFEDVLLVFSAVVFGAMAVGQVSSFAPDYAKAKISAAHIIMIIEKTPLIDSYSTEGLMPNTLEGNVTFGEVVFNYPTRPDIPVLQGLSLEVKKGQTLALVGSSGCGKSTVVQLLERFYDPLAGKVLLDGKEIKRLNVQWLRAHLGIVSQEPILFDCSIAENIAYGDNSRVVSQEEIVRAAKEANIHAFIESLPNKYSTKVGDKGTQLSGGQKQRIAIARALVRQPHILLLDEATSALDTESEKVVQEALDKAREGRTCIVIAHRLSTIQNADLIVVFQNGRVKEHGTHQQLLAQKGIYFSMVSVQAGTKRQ

SMILES | Flu intensity [1] | Flu intensity [2] | Ratio [3] | IC50 (L5178Y [4]) | Ratio [5] | IC50 (L5178Y [6]) | Activity [1] | Activity [2] | Flu intensity [7]
Cc1cc2c([n-]c3ccccc32)c2[n+]1C(C)NCC2 (centres undefined) [TABERNINE A] | 18.5 | 7.7 | 1.73 | 45.9 µM | 0.72 | 37.5 µM | – | – | –
Cc1cc2c3ccccc3n3c2c(n1)CCNC3C (centres undefined) [TEBERNINE B] | – | – | 0.99 | 46.6 µM | 0.78 | 39.7 µM | 10.7 | 8.9 | –
Cc1cc2c([nH]c3ccccc32)c(CCN)n1 [TEBERNINE C] | – | – | 1.43 | 70.6 µM | 0.79 | 51.5 µM | 15.3 | 8.4 | –
COc1ccc(CCN(C)CCCC(C#N)(c2ccc(OC)c(OC)c2)C(C)C)cc1OC (centres undefined) [VERAPAMIL] | – | – | – | – | – | – | – | – | 98.9

— ChEMBL document CHEMBL1152951, “Tabernines A-C, beta-carbolines from the leaves of Tabernaemontana elegans” (J Nat Prod, 2009)
